Measured values as given in US4777167A, “Pharmaceutically useful substituted thiacycloalkeno [3,2-b]pyridines, compositions and method of use” (Ortho Pharmaceutical Corporation, priority 1987, dated 1988).
“And” between values parts separate entries of the source, which are not always exact repeats. Identical values can stand only once. Like-named read-outs stand apart in the source and are kept apart here.

Legend:
calcium channels = target: T1, calcium channels (Oryctolagus cuniculus, UniProt P15381); assay: Inhibition of nitrendipine binding (3H-nitrendipine displacement, rabbit heart membranes); set-up: species or system rabbit (New Zealand white); settings: 90 min, 4° C.
T1 construct: from tissue; host or cells: heart of female New Zealand white rabbits, membrane fraction (42,000×g pellet)
Description: (1) Inhibition of nitrendipine binding to calcium channels.
The assay for inhibition of nitrendipine binding follows the following procedure:
Female, New Zealand white rabbits (1-2 kg) are sacrificed by cervical dislocation, and the heart is immediately removed, cleaned, and chopped into small pieces. The tissue is homogenized in 5× volume of 0.05M Hepes buffer, pH 7.4. The homogenate is centrifuged at 4000×g for 10 minutes; the supernatant is recentrifuged at 42,000×g for 90 minutes. The resulting membrane pellet is resuspended (0.7 ml/g weight) in 0.05M Hepes, pH 7.4 and stored at -70° C. until used. Each tube of the binding assay contains ^3 H- nitrendipine (0.05-0.50 nM), buffer, membranes (0.10 ml), and test compound in a total volume of 1.0 ml. After 90 minutes at 4° C., the bound nitrendipine is separated from the unbound by filtration on Whatman GF/C fibers. After rinsing, the filters are dried and counted in a liquid scintillation counter.
Non-specific binding of ^3 H-nitrendipine (that amount bound in the presence of excess unlabelled nitrendipine) is subtracted from the total bound to obtain specifically bound radiolabeled nitrendipine. The amount of specifically bound nitrendipine in the presence of a test compound is compared to that amount bound in the absence of a compound. A percent displacement (or inhibition) can then be obtained.

trachealis muscle = assay: Inhibition of calcium dependent smooth muscle contraction (KCl-challenged trachea); assay type: cell-based, dog; settings: Canis lupus familiaris; for inhibition at 2 µM: concentration 2.0 μM; for inhibition at 10 µM: concentration 10.0 μM; for inhibition at 0.5 µM: concentration 0.5 μM; for inhibition at 0.1 µM: concentration 0.1 μM; for inhibition at 0.2 µM: concentration 0.2 μM
Description: The test for inhibition of calcium dependent smooth muscle contraction is determined according to the following procedure:
Trachea from dogs sacrificed by excess KCl injection are stored overnight at 4° C. in oxygenated Krebs-Henseleit buffer. Tracheal rings, one cartilage segment wide (5-10 mm), are cut starting from the bronchial end. After cutting the cartilage, the trachealis muscle tissue is suspended in oxygenated Krebs-Henseleit buffer at 37° C. in a 25 ml tissue bath. After a 60 minutes equilibration period, the tissues are challenged with 10 μM carbachol. After 5 minutes the tissues are rinsed and allowed to rest 50 minutes. The tissues are then challenged with 50 mM KCl and, after 30 minutes, the contractions are quantitated. The tissues are then rinsed and reequilibrated for 50 minutes. Test compounds are then added for 10 minutes, and the tissue is rechallenged with 50 mMKcl. After 30 minutes, the contraction is recorded and used to determine the % inhibition of control.
The percent inhibition of smooth muscle contraction is calculated from response data before and after drug treatment. [formula] A rating is assigned to the compound depending upon the percent inhibition obtained.

Aorta Muscle = assay: Inhibition of aorta muscle contraction; assay type: cell-based; settings: Table II; concentration 0.1 μM
[1] = Table I, read-out: Inhibition of Ca2+ dependent smooth muscle contraction % Inhibition
[2] = Table II, read-out: Inhibition Trachea Muscle Contraction % Inhibition

T1 sequence (P15381 whole entry, other chains not shown): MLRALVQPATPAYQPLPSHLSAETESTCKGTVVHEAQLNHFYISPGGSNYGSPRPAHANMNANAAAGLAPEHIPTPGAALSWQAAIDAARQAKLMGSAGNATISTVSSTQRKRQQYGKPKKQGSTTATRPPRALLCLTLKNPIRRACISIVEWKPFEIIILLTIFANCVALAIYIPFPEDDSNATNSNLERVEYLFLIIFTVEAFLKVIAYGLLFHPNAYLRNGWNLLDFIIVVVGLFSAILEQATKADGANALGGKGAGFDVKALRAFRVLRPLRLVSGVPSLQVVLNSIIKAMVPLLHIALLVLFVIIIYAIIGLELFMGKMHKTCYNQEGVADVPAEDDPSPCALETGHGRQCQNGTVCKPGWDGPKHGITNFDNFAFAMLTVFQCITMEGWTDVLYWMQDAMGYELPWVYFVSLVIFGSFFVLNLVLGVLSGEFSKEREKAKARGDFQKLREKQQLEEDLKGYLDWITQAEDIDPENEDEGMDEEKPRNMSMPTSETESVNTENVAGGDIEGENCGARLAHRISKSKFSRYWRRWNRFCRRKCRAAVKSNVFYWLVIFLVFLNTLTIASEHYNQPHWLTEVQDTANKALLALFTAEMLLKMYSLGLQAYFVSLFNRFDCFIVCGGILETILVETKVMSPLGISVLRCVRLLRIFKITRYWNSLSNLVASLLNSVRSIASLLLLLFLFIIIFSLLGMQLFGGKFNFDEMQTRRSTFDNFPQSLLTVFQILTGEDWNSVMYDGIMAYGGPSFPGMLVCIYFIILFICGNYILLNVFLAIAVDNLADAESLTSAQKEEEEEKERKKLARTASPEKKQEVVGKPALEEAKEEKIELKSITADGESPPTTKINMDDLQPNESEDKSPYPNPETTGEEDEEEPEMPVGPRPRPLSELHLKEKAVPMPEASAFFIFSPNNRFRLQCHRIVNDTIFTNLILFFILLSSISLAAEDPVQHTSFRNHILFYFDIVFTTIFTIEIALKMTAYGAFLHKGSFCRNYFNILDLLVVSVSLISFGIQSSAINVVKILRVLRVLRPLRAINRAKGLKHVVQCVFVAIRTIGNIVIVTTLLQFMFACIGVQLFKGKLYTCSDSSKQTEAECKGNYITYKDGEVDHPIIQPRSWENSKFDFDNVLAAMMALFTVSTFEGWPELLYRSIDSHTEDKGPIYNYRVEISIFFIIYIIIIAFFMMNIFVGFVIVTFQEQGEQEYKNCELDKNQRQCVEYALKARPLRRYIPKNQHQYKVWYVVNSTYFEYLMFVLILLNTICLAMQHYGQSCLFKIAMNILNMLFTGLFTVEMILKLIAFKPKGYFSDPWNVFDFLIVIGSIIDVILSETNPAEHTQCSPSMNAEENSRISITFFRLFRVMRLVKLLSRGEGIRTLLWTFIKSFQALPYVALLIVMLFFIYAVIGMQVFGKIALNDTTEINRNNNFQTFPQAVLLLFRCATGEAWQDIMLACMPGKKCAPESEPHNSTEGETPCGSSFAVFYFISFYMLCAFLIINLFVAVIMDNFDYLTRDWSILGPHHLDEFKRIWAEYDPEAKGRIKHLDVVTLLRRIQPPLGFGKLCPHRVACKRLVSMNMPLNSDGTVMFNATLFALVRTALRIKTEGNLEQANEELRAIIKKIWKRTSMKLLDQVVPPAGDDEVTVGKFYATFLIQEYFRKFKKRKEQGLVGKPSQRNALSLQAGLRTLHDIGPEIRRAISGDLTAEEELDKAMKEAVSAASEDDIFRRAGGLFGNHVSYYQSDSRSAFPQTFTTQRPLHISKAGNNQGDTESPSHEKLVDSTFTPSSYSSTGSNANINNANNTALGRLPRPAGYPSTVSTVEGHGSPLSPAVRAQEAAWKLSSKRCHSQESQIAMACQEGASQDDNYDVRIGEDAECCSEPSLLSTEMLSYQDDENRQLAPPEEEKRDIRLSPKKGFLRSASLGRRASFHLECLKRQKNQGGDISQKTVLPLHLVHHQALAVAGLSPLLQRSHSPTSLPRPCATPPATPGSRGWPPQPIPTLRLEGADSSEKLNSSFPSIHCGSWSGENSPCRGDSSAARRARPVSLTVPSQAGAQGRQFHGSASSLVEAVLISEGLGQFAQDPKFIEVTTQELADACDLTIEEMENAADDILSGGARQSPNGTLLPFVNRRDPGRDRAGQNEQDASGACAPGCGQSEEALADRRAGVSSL
T1 sequence (P13806 27-960 partner limits assumed, other chains not shown): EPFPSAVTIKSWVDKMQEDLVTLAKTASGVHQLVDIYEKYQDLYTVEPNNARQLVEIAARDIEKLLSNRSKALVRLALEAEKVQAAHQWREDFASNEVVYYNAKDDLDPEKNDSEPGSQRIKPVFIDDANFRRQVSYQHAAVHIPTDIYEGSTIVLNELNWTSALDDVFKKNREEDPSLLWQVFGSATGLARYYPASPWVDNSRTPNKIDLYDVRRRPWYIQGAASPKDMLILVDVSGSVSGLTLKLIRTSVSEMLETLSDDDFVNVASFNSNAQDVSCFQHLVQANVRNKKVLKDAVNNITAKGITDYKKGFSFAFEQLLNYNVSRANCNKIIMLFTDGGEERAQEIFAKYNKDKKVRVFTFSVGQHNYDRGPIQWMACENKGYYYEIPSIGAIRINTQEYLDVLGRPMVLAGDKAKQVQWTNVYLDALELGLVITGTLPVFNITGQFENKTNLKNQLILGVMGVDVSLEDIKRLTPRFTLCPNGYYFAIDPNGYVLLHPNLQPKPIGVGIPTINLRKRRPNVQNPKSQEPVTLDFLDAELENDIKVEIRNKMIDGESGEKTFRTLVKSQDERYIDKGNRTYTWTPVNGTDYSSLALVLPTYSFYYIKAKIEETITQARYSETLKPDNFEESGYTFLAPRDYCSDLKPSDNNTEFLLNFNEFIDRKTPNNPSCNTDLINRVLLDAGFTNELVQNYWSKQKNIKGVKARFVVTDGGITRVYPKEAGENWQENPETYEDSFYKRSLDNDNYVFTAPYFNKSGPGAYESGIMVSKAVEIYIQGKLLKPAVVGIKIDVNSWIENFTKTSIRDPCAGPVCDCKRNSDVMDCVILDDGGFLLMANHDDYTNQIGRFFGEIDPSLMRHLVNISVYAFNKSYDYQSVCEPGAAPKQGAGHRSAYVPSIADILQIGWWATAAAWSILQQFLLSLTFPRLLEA
T1 sequence (P13806 961-1106 partner limits assumed, other chains not shown): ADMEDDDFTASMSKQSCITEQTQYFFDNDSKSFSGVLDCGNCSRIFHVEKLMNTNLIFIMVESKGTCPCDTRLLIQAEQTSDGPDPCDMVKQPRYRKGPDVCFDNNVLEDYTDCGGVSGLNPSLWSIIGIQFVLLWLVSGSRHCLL

## CC1=C(C(=O)OCCN(C)CCc2ccccc2)C(c2cccc(Cl)c2Cl)C2=C(CCCCCS2(=O)=O)N1 (stereo not shown)
Calcium channels; Table II
  IC50: 149 nM
Trachealis muscle; Table II, concentration 1.0 μM
  inhibition at 1 µM: 57%
Aorta Muscle
  inhibition at 0.1 µM: 67%

## CC1=C(C(=O)OCCN(C)Cc2ccccc2)C(c2cccc([N+](=O)[O-])c2)C2=C(CCS2(=O)=O)N1 (stereo not shown) [2 CH2 CH2 NCH3 CH2 C6 H5 3-NO2C6 H4, N-Benzyl-N-methylaminoethyl 2,3,4,7-tetrahydro-5-methyl-7-(3-nitrophenyl)-1,1-dioxothieno[3,2-b]pyridine-6-carboxylate]
Calcium channels; Table I
  IC50: 1000 nM
Trachealis muscle; Table I, concentration 5.0 μM, read-out: Inhibition of Ca2+ dependent smooth muscle contraction % Inhibition
  inhibition at 5 µM: 65%

## CCOC(=O)C1=C(C)NC2=C(C1c1c(F)c(F)c(F)c(F)c1F)S(=O)(=O)CC2 (stereo not shown) [2 CH2 CH3 C6 F5]
Calcium channels; Table I
  IC50: 560 nM
Trachealis muscle; [1]
  inhibition at 2 µM: 48%

## COC(=O)C1=C(C)NC2=C(C1c1ccccc1[N+](=O)[O-])S(=O)(=O)CC2 (stereo not shown) [2 CH3 2-NO2C6 H4, Methyl 2,3,4,7,-tetrahydro-5-methyl-7-(2-nitrophenyl)-1,1-dioxothieno[3,2-b]pyridine-6-carboxylate]
Calcium channels; Table I
  IC50: 1350 nM
Trachealis muscle; [1]
  inhibition at 2 µM: 63%

## COC(=O)C1=C(C)NC2=C(C1c1cccc(C#N)c1)S(=O)(=O)CC2 (stereo not shown) [2 CH3 3-CNC6 H4]
Calcium channels; Table I
  IC50: 2000 nM

## COC(=O)C1=C(C)NC2=C(C1c1cccc(Cl)c1)S(=O)(=O)CC2 (stereo not shown) [2 CH3 3-ClC6 H4]
Calcium channels; Table I
  IC50: 930 nM

## COC(=O)C1=C(C)NC2=C(C1c1cccc([N+](=O)[O-])c1)S(=O)(=O)CC2 (stereo not shown) [2 CH3 3-NO2C6 H4]
Calcium channels; Table I
  IC50: 700 nM
Trachealis muscle; [1]
  inhibition at 10 µM: 76%

## COC(=O)C1=C(C)NC2=C(C1c1c(F)c(F)c(F)c(F)c1F)S(=O)(=O)CC2 (stereo not shown) [2 CH3 C6 F5]
Calcium channels; Table I
  IC50: 150 nM
Trachealis muscle; [1]
  inhibition at 2 µM: 47%

## CC1=C(C(=O)OCc2ccccc2)C(c2ccccc2[N+](=O)[O-])C2=C(CCCS2(=O)=O)N1 (stereo not shown) [3 CH2 C6 H5 2-NO2C6 H4]
Calcium channels; Table I
  IC50: 3400 nM
Trachealis muscle; [1]
  inhibition at 10 µM: 69%

## CC1=C(C(=O)OCCN(C)Cc2ccccc2)C(c2cccc([N+](=O)[O-])c2)C2=C(CCCS2(=O)=O)N1 (stereo not shown) [3 CH2 CH2 NCH3 CH2 C6 H5 3-NO2C6 H4, N-Benzyl-N-methyl-2-aminoethyl 2,3,4,8-tetrahydro-6-methyl-8-(3-nitrophenyl)-1,1-dioxo-5H-thiopyrano[3,2-b]pyridine-7-carboxylate Hemioxalate]
Calcium channels; Table I
  IC50: 1850 nM
Trachealis muscle; [1]
  inhibition at 2 µM: 46%

## CCOC(=O)C1=C(C)NC2=C(C1c1ccccc1[N+](=O)[O-])S(=O)(=O)CCC2 (stereo not shown) [3 CH2 CH3 2-NO2C6 H4]
Calcium channels; Table I
  IC50: 1500 nM
Trachealis muscle; [1]
  inhibition at 10 µM: 75%

## CCOC(=O)C1=C(C)NC2=C(C1c1cccc([N+](=O)[O-])c1)S(=O)(=O)CCC2 (stereo not shown) [3 CH2 CH3 3-NO2C6 H4, Ethyl 3,4,5,8-tetrahydro-6-methyl-8-(3-nitrophenyl)-1,1-dioxo-2H-thio-pyrano[3,2-b]pyridine-7-carboxylate]
Calcium channels; Table I
  IC50: 170 nM
Trachealis muscle; [1]
  inhibition at 10 µM: 69%

## COC(=O)C1=C(C)NC2=C(C1c1ccccc1[N+](=O)[O-])S(=O)(=O)CCC2 (stereo not shown) [3 CH3 2-NO2C6 H4]
Calcium channels; Table I
  IC50: 890 nM
Trachealis muscle; [1]
  inhibition at 10 µM: 84%

## COC(=O)C1=C(C)NC2=C(C1c1cccc([N+](=O)[O-])c1)S(=O)(=O)CCC2 (stereo not shown) [3 CH3 3-NO2C6 H4, Methyl 3,4,5,8,-tetrahydro-6-methyl-8-(3-nitrophenyl)-1,1-dioxo-2H-thiopyrano-[3,2-b]pyridine-7-carboxylate]
Calcium channels; Table I
  IC50: 160 nM
Trachealis muscle; [1]
  inhibition at 10 µM: 57%

## COC(=O)C1=C(C)NC2=C(C1c1c(F)c(F)c(F)c(F)c1F)S(=O)(=O)CCC2 (stereo not shown) [3 CH3 C6 F5]
Calcium channels; Table I
  IC50: 400 nM
Trachealis muscle; [1]
  inhibition at 0.5 µM: 46%

## CC1=C(C(=O)OC2CCCSC2)C(c2cccc(Cl)c2Cl)C2=C(CCCCS2(=O)=O)N1 (stereo not shown) [4 2,3-Cl2C6 H3 drawing 14]
Trachealis muscle; [2]
  inhibition at 2 µM: 54%

## CC1=C(C(=O)OCCN(C)Cc2ccccc2)C(c2cccc(Cl)c2Cl)C2=C(CCCCS2(=O)=O)N1 (stereo not shown) [4 2,3-Cl2C6 H3, N-Benzyl-N-methylaminoethyl 9-(2,3-dichlorophenyl)-2,4,5,6,9-hexahydro-7-methyl-1,1-dioxothiacyclohepteno[3,2-b]pyridine-8-carboxylate]
Calcium channels; Table II
  IC50: 100 nM
Trachealis muscle; [2]
  inhibition at 0.1 µM: 62%
Aorta Muscle
  inhibition at 0.1 µM: 83%

## CC1=C(C(=O)OCCN(C)Cc2ccccc2)C(c2cc(F)ccc2F)C2=C(CCCCS2(=O)=O)N1 (stereo not shown) [4 2,5-F2C6 H3]
Calcium channels; Table II
  IC50: 120 nM
Trachealis muscle; [2]
  inhibition at 0.1 µM: 43%
Aorta Muscle
  inhibition at 0.1 µM: 47%

## CC1=C(C(=O)OCCN(C)Cc2ccccc2)C(c2ccccc2OC(F)F)C2=C(CCCCS2(=O)=O)N1 (stereo not shown) [4 2-OCHF2C6 H4, N-Benzyl-N-methylaminoethyl 9-(2-cifluoromethoxyphenyl)-2,4,5,6,9-hexahydro-7-methyl-1,1-dioxothiacyclohepteno[3,2-b]pyridine-8-carboxylate]
Calcium channels; Table II
  IC50: 72 nM
Trachealis muscle; [2]
  inhibition at 0.1 µM: 54%

## CC1=C(C(=O)OC2CCCSC2)C(c2c(F)c(F)c(F)c(F)c2F)C2=C(CCCCS2(=O)=O)N1 (stereo not shown) [4 C6 F5 drawing 13]
Trachealis muscle; [2]
  inhibition at 2 µM: 53%

## CC1=C(C(=O)OCCN(C)Cc2ccccc2)C(c2cccc([N+](=O)[O-])c2)C2=C(CCCCS2(=O)=O)N1 (stereo not shown) [4 CH2 CH2 NCH3 CH2 C6 H5 3-NO2C6 H4, N-Benzyl-N-methylaminoethyl 2,4,5,6,9-hexahydro-7-methyl-9-(3-nitrophenyl)-1,1-dioxothiacyclohepteno[3,2-b]pyridine-8-carboxylate]
Calcium channels; Table I
  IC50: 130 nM
Trachealis muscle; [1]
  inhibition at 0.2 µM: 68%

## CC1=C(C(=O)OCCN(C)Cc2ccccc2)C(c2c(F)c(F)c(F)c(F)c2F)C2=C(CCCCS2(=O)=O)N1 (stereo not shown) [4 CH2 CH2 NCH3 CH2 C6 H5 C6 F5, N-Benzyl-N-methylaminoethyl 9-(2,3,4,5,6-pentafluorophenyl)-2,3,4,5,6,9-hexahydro-7-methyl-1,1-dioxothiacyclohepteno[3,2-b]pyridine-8-carboxylate]
Calcium channels; Table I
  IC50: 35 nM
Trachealis muscle; [1]
  inhibition at 0.2 µM: 74%

## CCOC(=O)C1=C(C)NC2=C(C1c1c(F)c(F)c(F)c(F)c1F)S(=O)(=O)CCCC2 (stereo not shown) [4 CH2 CH3 C6 F5, Ethyl 9-(2,3,4,5,6-pentafluorophenyl)-2,3,4,5,6,9-hexahydro-7-methyl-1,1-dioxothiacyclohepteno[3,2-b]pyridine-8-carboxylate]
Calcium channels; Table I
  IC50: 28 nM
Trachealis muscle; [1]
  inhibition at 0.5 µM: 95%

## COC(=O)C1=C(C)NC2=C(C1c1cccc([N+](=O)[O-])c1)S(=O)(=O)CCCC2 (stereo not shown) [4 CH3 3-NO2C6 H4]
Calcium channels; Table I
  IC50: 27 nM and 39 nM
Trachealis muscle; [1]
  inhibition at 2 µM: 94%

## CCOC(=O)C1=C(C)NC2=C(C1c1cccc([N+](=O)[O-])c1)S(=O)(=O)CCCC2 (stereo not shown) [4 CH 2 CH3 3-NO2C6 H4, Ethyl 2,3,4,5,6,9-hexahydro-7-methyl-9-(3-nitrophenyl)-1,1-dioxothiacyclohepteno[3,2-b]pyridine-8-carboxylate]
Calcium channels; Table I
  IC50: 44 nM
Trachealis muscle; [1]
  inhibition at 2 µM: 96%

## CC1=C(C(=O)OCCN(C)Cc2ccccc2)C(c2ccccc2[N+](=O)[O-])C2=C(CCCCCS2(=O)=O)N1 (stereo not shown) [5 2-NO2C 6 H4 CH2 CH2 NCH3 CH2 C6 H5]
Trachealis muscle; [2]
  inhibition at 0.1 µM: 69%
Aorta Muscle
  inhibition at 0.1 µM: 73%

## CCOC(=O)C1=C(C)NC2=C(C1c1cccc([N+](=O)[O-])c1)S(=O)(=O)CCCCC2 (stereo not shown) [5 CH2 CH3 3-NO2C6 H4]
Calcium channels; Table I
  IC50: 5.5 nM
Trachealis muscle; [1]
  inhibition at 0.1 µM: 71%

## CCOC(=O)C1=C(C)NC2=CCCCCS(=O)(=O)C2C1c1cccc([N+](=O)[O-])c1 (stereo not shown) [Ethyl 3,4,5,7,10,10a-hexahydro-8-methyl-10-(3-nitrophenyl)-1,1-dioxo-2H-thiacycloocteno[3,2-b]pyridine-9-carboxylate]
Calcium channels; Table I
  IC50: 270 nM
Trachealis muscle; [1]
  inhibition at 2 µM: 53%

## COC(=O)C1=C(C)NC2(O)CCS(=O)(=O)C2C1c1ccccc1[N+](=O)[O-] (stereo not shown) [Methyl 2,3,3a,4,7,7a-hexahydro-3a-hydroxy-5-methyl-7-(2-nitrophenyl)-1,1-dioxo-thieno[3,2-b]pyridine-6-carboxylate]
Trachealis muscle; [1]
  inhibition at 2 µM: 26%

## CCOC(=O)C1=C(C)NC2=C(C1c1cccnc1SC)S(=O)(=O)CCCCC2 (stereo not shown) [drawing 8 CH2 CH3]
Trachealis muscle; Table II, concentration 0.3 μM
  inhibition at 0.3 µM: 79%
Aorta Muscle
  inhibition at 0.1 µM: 42%
